According to US10577363B2, “Substituted piperidine compounds” (EPIZYME, INC., priority 2014, dated 2020):

Experiments:
SMYD3 [1] = target: T1, SMYD3 (Homo sapiens (Human), UniProt Q9H7B4); test: SMYD3 cell assay (Trimethyl-MEKK2 In-Cell Western in 293T/17 cells); type: cell-based
Method in brief: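 In-Cell Western readout: methanol-fixed cells stained for trimethyl-MEKK2 and flag tag, ratio per well normalized to DMSO and background controls.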

SMYD3 [2] = target: T1, SMYD3; test: SMYD3 biochemical assay (SPA, 3H-SAM methylation of MEKK2 protein substrate)
Method in brief: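 SPA methyltransferase format: tag-cleaved human SMYD3, insect-cell GST-MEKK2 protein substrate, 3H-SAM donor, 30 min RT enzyme–compound preincubation, 100 uM cold SAM quench.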

[3] = average of n = 1 to n = 50, read-out: SMYD3 Cell IC50
[4] = average of n = 1 to n = 50, read-out: SMYD3 Biochem IC50
[5] = 293T/17 cells, read-out: SMYD3 Cell IC50 (μM)*
[6] = read-out: SMYD3 Biochem IC50 (μM)*
[7] = Table 2A, read-out: SMYD3 Cell IC50
[8] = Table 2A, read-out: SMYD3 Biochem IC50

T1 sequence (Q9H7B4 whole entry): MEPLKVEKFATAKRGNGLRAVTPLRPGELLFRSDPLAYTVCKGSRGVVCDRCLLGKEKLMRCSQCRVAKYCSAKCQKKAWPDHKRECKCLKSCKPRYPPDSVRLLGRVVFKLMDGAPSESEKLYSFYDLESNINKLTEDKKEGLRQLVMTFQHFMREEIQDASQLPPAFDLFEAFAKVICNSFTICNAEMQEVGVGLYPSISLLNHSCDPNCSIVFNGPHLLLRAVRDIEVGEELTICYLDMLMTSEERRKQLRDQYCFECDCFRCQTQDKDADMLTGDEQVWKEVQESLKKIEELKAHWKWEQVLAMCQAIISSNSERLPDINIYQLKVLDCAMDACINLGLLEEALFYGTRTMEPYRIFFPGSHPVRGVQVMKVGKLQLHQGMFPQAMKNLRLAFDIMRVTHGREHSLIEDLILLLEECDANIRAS

Compound	IC50 (SMYD3 [2]; [6])	IC50 (SMYD3 [1]; read-out: SMYD3 Cell IC50*)	IC50 (SMYD3 [2]; read-out: SMYD3 Biochem IC50*)	other results
C[C@H]1CN(S(=O)(=O)CC2CCN(CCC(F)(F)F)CC2)CC[C@H]1NC(=O)c1cc(C2CC2)on1 [compound 698, 5-cyclopropyl-N-((3S,4R)-3-methyl-1-(((1-(3,3,3-trifluoropropyl)piperidin-4-yl)methyl)sulfonyl)piperidin-4-yl)isoxazole-3-carboxamide]	–	–	–	IC50 (SMYD3 [1]; [3]): 0.746 µM; IC50 (SMYD3 [2]; [4]): 0.179 µM
CC(=O)Nc1ccc(S(=O)(=O)N2[C@@H]3CC[C@H]2C[C@@H](NC(=O)c2cc(C4CC4)on2)C3)cc1 [compound 403, N-((1R,3r,5S)-8-((4-acetamidophenyl)sulfonyl)-8-azabicyclo[3.2.1]octan-3-yl)-5-cyclopropylisoxazole-3-carboxamide]	10 µM	–	–	IC50 (SMYD3 [1]; [5]): > 10 µM
C[C@H](C1CCN(C)CC1)S(=O)(=O)N1[C@@H]2CC[C@H]1C[C@@H](NC(=O)c1cc(C3CC3)on1)C2 [compound 876, 5-cyclopropyl-N-((1R,3R,5S)-8-(((R)-1-(1-methylpiperidin-4-yl)ethyl)sulfonyl)-8-azabicyclo[3.2.1]octan-3-yl)isoxazole-3-carboxamide]	–	0.186 µM	0.01 µM	–
C[C@H]1C[C@@H](NC(=O)c2cc(C3CC3)on2)CCN1C(=O)c1ccc(C(C)(C)N)cc1 [compound 370, N-((2S,4S)-1-(4-(2-aminopropan-2-yl)benzoyl)-2-methylpiperidin-4-yl)-5-cyclopropylisoxazole-3-carboxamide]	4.39 µM	–	–	IC50 (SMYD3 [1]; [5]): > 40 µM
COCCCN1CCC(CS(=O)(=O)N2[C@@H]3CC[C@H]2C[C@@H](NC(=O)c2cc(C4CC4)on2)C3)CC1 [compound 542, 5-cyclopropyl-N-((1R,3r,5S)-8-(((1-(3-methoxypropyl)piperidin-4-yl)methyl)sulfonyl)-8-azabicyclo[3.2.1]octan-3-yl)isoxazole-3-carboxamide]	–	–	–	IC50 (SMYD3 [1]; [7]): 0.0496 µM; IC50 (SMYD3 [2]; [8]): 0.0016 µM
CN(C)CCS(=O)(=O)N1[C@@H]2CC[C@H]1C[C@@H](NC(=O)c1cc(C3CC3)on1)C2 [compound 672, 5-cyclopropyl-N-((1R,3r,5S)-8-((2-(dimethylamino)ethyl)sulfonyl)-8-azabicyclo[3.2.1]octan-3-yl)isoxazole-3-carboxamide]	–	–	–	IC50 (SMYD3 [1]; [3]): 0.388 µM; IC50 (SMYD3 [2]; [4]): 0.104 µM
O=C(N[C@@H]1CCN(S(=O)(=O)CCCN2CCOCC2)[C@H](Cc2ccccc2)C1)c1cc(C2CC2)on1 [compound 439, N-((2R,4R)-2-benzyl-1-((3-morpholinopropyl)sulfonyl)piperidin-4-yl)-5-cyclopropylisoxazole-3-carboxamide]	> 10 µM	–	–	IC50 (SMYD3 [1]; [5]): > 10 µM
CN1CCC[C@@H](S(=O)(=O)N2[C@@H]3CC[C@H]2C[C@@H](NC(=O)c2cc(C4CC4)on2)C3)C1 [compound 926, 5-cyclopropyl-N-((1R,3R,5S)-8-(((R)-1-methylpiperidin-3-yl)sulfonyl)-8-azabicyclo[3.2.1]octan-3-yl)isoxazole-3-carboxamide]	–	0.209 µM	0.03 µM	–
CC1CN(S(=O)(=O)N2CC[C@H](NC(=O)c3cc(C4CC4)on3)C[C@@H]2C)CCN1C (stereo partly drawn) [compound 699, 5-cyclopropyl-N-((2S,4S)-1-((3,4-dimethylpiperazin-1-yl)sulfonyl)-2-methylpiperidin-4-yl)isoxazole-3-carboxamide]	–	–	–	IC50 (SMYD3 [1]; [3]): 0.658 µM; IC50 (SMYD3 [2]; [4]): 0.193 µM
C[C@H]1C[C@@H](NC(=O)c2cc(C3CC3)on2)CCN1S(=O)(=O)C[C@@H]1CC[C@@H](N)C1 [compound 784, N-((2S,4S)-1-((((1R,3R)-3-aminocyclopentyl)methyl)sulfonyl)-2-methylpiperidin-4-yl)-5-cyclopropylisoxazole-3-carboxamide]	–	0.0393 µM	0.00129 µM	–
C[C@H]1CN(S(=O)(=O)N2CCN(C)CC2)CC[C@H]1NC(=O)c1cc(C2CC2)on1 [compound 710, 5-cyclopropyl-N-((3S,4R)-3-methyl-1-((4-methylpiperazin-1-yl)sulfonyl)piperidin-4-yl)isoxazole-3-carboxamide]	–	–	–	IC50 (SMYD3 [1]; [3]): 0.831 µM; IC50 (SMYD3 [2]; [4]): 0.261 µM
CC(C)[C@@H]1C[C@H](NC(=O)c2cc(C3CC3)on2)CCN1S(=O)(=O)CCCN [compound 502, N-((2S,4R)-1-((3-aminopropyl)sulfonyl)-2-isopropylpiperidin-4-yl)-5-cyclopropylisoxazole-3-carboxamide]	–	–	–	IC50 (SMYD3 [1]; Table 1A, IC50 values are an average of n = 1 to n = 50, read-out: SMYD3 Cell IC50): > 10 µM; IC50 (SMYD3 [2]; Table 1A, IC50 values are an average of n = 1 to n = 50, read-out: SMYD3 Biochem IC50): 0.766 µM
O=C(N[C@H]1C[C@H]2CC[C@@H](C1)N2S(=O)(=O)C[C@H]1CCCN1)c1cc(C2CC2)on1 [compound 956, 5-cyclopropyl-N-((1R,3R,5S)-8-((((R)-pyrrolidin-2-yl)methyl)sulfonyl)-8-azabicyclo[3.2.1]octan-3-yl)isoxazole-3-carboxamide]	–	0.733 µM	0.0596 µM	–
CC[C@@H]1CN(S(=O)(=O)N2CC[C@H](NC(=O)c3cc(C4CC4)on3)C[C@@H]2C)CCN1 [compound 974, 5-cyclopropyl-N-((2S,4S)-1-(((R)-3-ethylpiperazin-1-yl)sulfonyl)-2-methylpiperidin-4-yl)isoxazole-3-carboxamide]	–	–	–	IC50 (SMYD3 [1]; IC50 values are an average of n = 1 to n = 50, read-out: SMYD3 Cell IC50*): 0.807 µM; IC50 (SMYD3 [2]; IC50 values are an average of n = 1 to n = 50, read-out: SMYD3 Biochem IC50*): 0.099 µM
C[C@@H]1C[C@H](NC(=O)c2cc(C3CC3)on2)CCN1S(=O)(=O)CC1CCNCC1 (single isomer, unassigned) [Cpd. No. 418]	0.0172 µM	–	–	IC50 (SMYD3 [1]; [5]): 0.197 µM
CCCNC1CCN(S(=O)(=O)N2[C@@H]3CC[C@H]2C[C@@H](NC(=O)c2cc(C4CC4)on2)C3)CC1 [compound 863, 5-cyclopropyl-N-((1R,3r,5S)-8-((4-(propylamino)piperidin-1-yl)sulfonyl)-8-azabicyclo[3.2.1]octan-3-yl)isoxazole-3-carboxamide]	–	0.08 µM	0.00777 µM	–
CCCN1CCC(CS(=O)(=O)N2[C@@H]3CC[C@H]2C[C@@H](NC(=O)c2cc(C4CC4)on2)C3)CC1 [compound 781, 5-cyclopropyl-N-((1R,3r,5S)-8-(((1-propylpiperidin-4-yl)methyl)sulfonyl)-8-azabicyclo[3.2.1]octan-3-yl)isoxazole-3-carboxamide]	–	0.027 µM	0.00122 µM	–
O=C(N[C@H]1C[C@H]2CC[C@@H](C1)N2S(=O)(=O)C[C@@H]1CCCCN1)c1cc(C2CC2)on1 [compound 919, 5-cyclopropyl-N-((1R,3S,5S)-8-((((S)-piperidin-2-yl)methyl)sulfonyl)-8-azabicyclo[3.2.1]octan-3-yl)isoxazole-3-carboxamide]	–	0.243 µM	0.0254 µM	–
COCCCN1C2CCC1CN(S(=O)(=O)N1[C@@H]3CC[C@H]1C[C@@H](NC(=O)c1cc(C4CC4)on1)C3)C2 [compound 888, 5-cyclopropyl-N-((1R,3r,5S)-8-((8-(3-methoxypropyl)-3,8-diazabicyclo[3.2.1]octan-3-yl)sulfonyl)-8-azabicyclo[3.2.1]octan-3-yl)isoxazole-3-carboxamide]	–	0.118 µM	0.0124 µM	–
O=C(N[C@H]1C[C@H]2CC[C@@H](C1)N2S(=O)(=O)C[C@@H]1CCCNC1)c1cc(C2CC2)on1 [compound 569, 5-cyclopropyl-N-((1R,3R,5S)-8-((((R)-piperidin-3-yl)methyl)sulfonyl)-8-azabicyclo[3.2.1]octan-3-yl)isoxazole-3-carboxamide]	–	–	–	IC50 (SMYD3 [1]; [7]): 0.0394 µM; IC50 (SMYD3 [2]; [8]): 0.0066 µM
NCCCS(=O)(=O)N1[C@@H]2CC[C@H]1C[C@H](NC(=O)c1cc(C3CC3)on1)C2 [compound 484, N-((1R,3s,5S)-8-((3-aminopropyl)sulfonyl)-8-azabicyclo[3.2.1]octan-3-yl)-5-cyclopropylisoxazole-3-carboxamide]	0.0792 µM	–	–	IC50 (SMYD3 [1]; [5]): 1.44 µM
CC(C)CN1CCC2(CC1)CN(S(=O)(=O)N1[C@@H]3CC[C@H]1C[C@@H](NC(=O)c1cc(C4CC4)on1)C3)C2 [compound 818, 5-cyclopropyl-N-((1R,3r,5S)-8-((7-isobutyl-2,7-diazaspiro[3.5]nonan-2-yl)sulfonyl)-8-azabicyclo[3.2.1]octan-3-yl)isoxazole-3-carboxamide]	–	0.0554 µM	0.00313 µM	–
O=C(N[C@H]1C[C@H]2CC[C@@H](C1)N2S(=O)(=O)N(Cc1ccccc1)C1CCNCC1)c1cc(C2CC2)on1 [compound 945, N-((1R,3r,5S)-8-(N-benzyl-N-(piperidin-4-yl)sulfamoyl)-8-azabicyclo[3.2.1]octan-3-yl)-5-cyclopropylisoxazole-3-carboxamide]	–	0.223 µM	0.0506 µM	–
C[C@H]1C[C@@H](NC(=O)c2cc(C3CC3)on2)CCN1S(=O)(=O)c1ccc(N(C)CCN2CCOCC2)nc1 [compound 414, 5-cyclopropyl-N-((2S,4S)-2-methyl-1-((6-(methyl(2-morpholinoethyl)amino)pyridin-3-yl)sulfonyl)piperidin-4-yl)isoxazole-3-carboxamide]	0.889 µM	–	–	IC50 (SMYD3 [1]; [5]): 2.61 µM
C[C@@H]1CN(S(=O)(=O)CCN)CCC1NC(=O)c1cc(C2CC2)on1 (stereo partly drawn) [compound 65, N-((3R)-1-((2-aminoethyl)sulfonyl)-3-methylpiperidin-4-yl)-5-cyclopropylisoxazole-3-carboxamide]	0.205 µM	–	–	IC50 (SMYD3 [1]; read-out: SMYD3 Cell IC50 (μM)*): 1.05 µM
O=C(N[C@@H]1C[C@H]2CC[C@@H](C1)N2S(=O)(=O)CCN1CCCC1)c1cc(C2CC2)on1 (single isomer, unassigned) [Cpd. No. 436]	0.0613 µM	–	–	IC50 (SMYD3 [1]; [5]): 0.285 µM
